Reference: ChEMBL document CHEMBL4665642, “Anticancer profile of newly synthesized BRAF inhibitors possess 5-(pyrimidin-4-yl)imidazo[2,1-b]thiazole scaffold” (Bioorg Med Chem, 2019)

What was measured:
Assay type in all cases: functional
Details in all cases: read-out: Activity
[1] = test system: MDA-MB-468; assay: Cytotoxicity against human MDA-MB-468 cells assessed as cell viability at 10 uM incubated for 48 hrs by sulforhodamine B assay relative to control
[2] = test system: BT-549; assay: Cytotoxicity against human BT-549 cells assessed as cell viability at 10 uM incubated for 48 hrs by sulforhodamine B assay relative to control
[3] = test system: MDA-MB-231; assay: Cytotoxicity against human MDA-MB-231 cells assessed as cell viability at 10 uM incubated for 48 hrs by sulforhodamine B assay relative to control
[4] = test system: MCF7; assay: Cytotoxicity against human MCF7 cells assessed as cell viability at 10 uM incubated for 48 hrs by sulforhodamine B assay relative to control
[5] = test system: DU-145; assay: Cytotoxicity against human DU-145 cells assessed as cell viability at 10 uM incubated for 48 hrs by sulforhodamine B assay relative to control
[6] = test system: PC-3; assay: Cytotoxicity against human PC-3 cells assessed as cell viability at 10 uM incubated for 48 hrs by sulforhodamine B assay relative to control
[7] = test system: TK-10; assay: Cytotoxicity against human TK-10 cells assessed as cell viability at 10 uM incubated for 48 hrs by sulforhodamine B assay relative to control
[8] = test system: SN12C; assay: Cytotoxicity against human SN12C cells assessed as cell viability at 10 uM incubated for 48 hrs by sulforhodamine B assay relative to control
[9] = test system: CAKI-1; assay: Cytotoxicity against human CAKI-1 cells assessed as cell viability at 10 uM incubated for 48 hrs by sulforhodamine B assay relative to control
[10] = test system: ACHN; assay: Cytotoxicity against human ACHN cells assessed as cell viability at 10 uM incubated for 48 hrs by sulforhodamine B assay relative to control
[11] = test system: 786-0; assay: Cytotoxicity against human 786-0 cells assessed as cell viability at 10 uM incubated for 48 hrs by sulforhodamine B assay relative to control
[12] = test system: SK-OV-3; assay: Cytotoxicity against human SK-OV-3 cells assessed as cell viability at 10 uM incubated for 48 hrs by sulforhodamine B assay relative to control
[13] = test system: NCI/ADR-RES; assay: Cytotoxicity against human NCI/ADR-RES cells assessed as cell viability at 10 uM incubated for 48 hrs by sulforhodamine B assay relative to control
[14] = test system: OVCAR-8; assay: Cytotoxicity against human OVCAR-8 cells assessed as cell viability at 10 uM incubated for 48 hrs by sulforhodamine B assay relative to control
[15] = test system: OVCAR-4; assay: Cytotoxicity against human OVCAR-4 cells assessed as cell viability at 10 uM incubated for 48 hrs by sulforhodamine B assay relative to control
[16] = test system: OVCAR-3; assay: Cytotoxicity against human OVCAR-3 cells assessed as cell viability at 10 uM incubated for 48 hrs by sulforhodamine B assay relative to control
[17] = test system: IGROV-1; assay: Cytotoxicity against human IGROV-1 cells assessed as cell viability at 10 uM incubated for 48 hrs by sulforhodamine B assay relative to control
[18] = test system: SK-MEL-28; assay: Cytotoxicity against human SK-MEL-28 cells assessed as cell viability at 10 uM incubated for 48 hrs by sulforhodamine B assay relative to control
[19] = test system: MDA-MB-435; assay: Cytotoxicity against human MDA-MB-435 cells assessed as cell viability at 10 uM incubated for 48 hrs by sulforhodamine B assay relative to control
[20] = test system: M14; assay: Cytotoxicity against human M14 cells assessed as cell viability at 10 uM incubated for 48 hrs by sulforhodamine B assay relative to control
[21] = test system: CCRF-CEM; assay: Cytotoxicity against human CCRF-CEM cells assessed as cell viability at 10 uM incubated for 48 hrs by sulforhodamine B assay relative to control
[22] = test system: HL-60(TB); assay: Cytotoxicity against human HL-60(TB) cells assessed as cell viability at 10 uM incubated for 48 hrs by sulforhodamine B assay relative to control
[23] = test system: K562; assay: Cytotoxicity against human K562 cells assessed as cell viability at 10 uM incubated for 48 hrs by sulforhodamine B assay relative to control
[24] = test system: RPMI-8226; assay: Cytotoxicity against human RPMI-8226 cells assessed as cell viability at 10 uM incubated for 48 hrs by sulforhodamine B assay relative to control
[25] = test system: SR; assay: Cytotoxicity against human SR cells assessed as cell viability at 10 uM incubated for 48 hrs by sulforhodamine B assay relative to control
[26] = test system: A549; assay: Cytotoxicity against human A549 cells assessed as cell viability at 10 uM incubated for 48 hrs by sulforhodamine B assay relative to control
[27] = test system: HOP-62; assay: Cytotoxicity against human HOP-62 cells assessed as cell viability at 10 uM incubated for 48 hrs by sulforhodamine B assay relative to control
[28] = test system: HOP-92; assay: Cytotoxicity against human HOP-92 cells assessed as cell viability at 10 uM incubated for 48 hrs by sulforhodamine B assay relative to control
[29] = test system: NCI-H226; assay: Cytotoxicity against human NCI-H226 cells assessed as cell viability at 10 uM incubated for 48 hrs by sulforhodamine B assay relative to control
[30] = test system: NCI-H23; assay: Cytotoxicity against human NCI-H23 cells assessed as cell viability at 10 uM incubated for 48 hrs by sulforhodamine B assay relative to control
[31] = test system: NCI-H322M; assay: Cytotoxicity against human NCI-H322M cells assessed as cell viability at 10 uM incubated for 48 hrs by sulforhodamine B assay relative to control
[32] = test system: NCI-H460; assay: Cytotoxicity against human NCI-H460 cells assessed as cell viability at 10 uM incubated for 48 hrs by sulforhodamine B assay relative to control
[33] = test system: COLO 205; assay: Cytotoxicity against human COLO 205 cells assessed as cell viability at 10 uM incubated for 48 hrs by sulforhodamine B assay relative to control
[34] = test system: HCT-15; assay: Cytotoxicity against human HCT-15 cells assessed as cell viability at 10 uM incubated for 48 hrs by sulforhodamine B assay relative to control
[35] = test system: HCT-29; assay: Cytotoxicity against human […] cells assessed as cell viability at 10 uM incubated for 48 hrs by sulforhodamine B assay relative to control
[36] = test system: KM12; assay: Cytotoxicity against human KM12 cells assessed as cell viability at 10 uM incubated for 48 hrs by sulforhodamine B assay relative to control
[37] = test system: SF-268; assay: Cytotoxicity against human SF-268 cells assessed as cell viability at 10 uM incubated for 48 hrs by sulforhodamine B assay relative to control
[38] = test system: SF-295; assay: Cytotoxicity against human SF-295 cells assessed as cell viability at 10 uM incubated for 48 hrs by sulforhodamine B assay relative to control
[39] = test system: SNB-19; assay: Cytotoxicity against human SNB-19 cells assessed as cell viability at 10 uM incubated for 48 hrs by sulforhodamine B assay relative to control
[40] = test system: SNB-75; assay: Cytotoxicity against human SNB-75 cells assessed as cell viability at 10 uM incubated for 48 hrs by sulforhodamine B assay relative to control
[41] = test system: LOX IMVI; assay: Cytotoxicity against human LOX IMVI cells assessed as cell viability at 10 uM incubated for 48 hrs by sulforhodamine B assay relative to control

O=S(=O)(NCCCNc1nccc(-c2c(-c3cccc(F)c3)nc3sccn23)n1)c1ccc(Br)cc1
viability at 10 µM [1]: 32.3% | viability at 10 µM [2]: 64% | viability at 10 µM [3]: 76.4% | viability at 10 µM [4]: 41.9% | viability at 10 µM [5]: 61.9% | viability at 10 µM [6]: 40.8% | viability at 10 µM [7]: 74.8% | viability at 10 µM [8]: 53.9% | viability at 10 µM [9]: 50.3% | viability at 10 µM [10]: 50.3% | viability at 10 µM [11]: 73.5% | viability at 10 µM [12]: 80.1% | viability at 10 µM [13]: 34.4% | viability at 10 µM [14]: 28% | viability at 10 µM [15]: 34.2% | viability at 10 µM [16]: 57.8% | viability at 10 µM [17]: 24.4% | viability at 10 µM [18]: 67% | viability at 10 µM [19]: 31.6% | viability at 10 µM [20]: 48.1% | viability at 10 µM [21]: 36.8% | viability at 10 µM [22]: 75.9% | viability at 10 µM [23]: 25.4% | viability at 10 µM [24]: 39.4% | viability at 10 µM [25]: 78.1% | viability at 10 µM [26]: 55.1% | viability at 10 µM [27]: 94.4% | viability at 10 µM [28]: 73.7% | viability at 10 µM [29]: 32.7% | viability at 10 µM [30]: 57.4% | viability at 10 µM [31]: 81% | viability at 10 µM [32]: 60.5% | viability at 10 µM [33]: 33.5% | viability at 10 µM [34]: 26.4% | viability at 10 µM [35]: 23.8% | viability at 10 µM [36]: 46.7% | viability at 10 µM [37]: 60.6% | viability at 10 µM [38]: 64.2% | viability at 10 µM [39]: 84.5% | viability at 10 µM [40]: 88.6% | viability at 10 µM [41]: 40.2%

O=S(=O)(NCCNc1nccc(-c2c(-c3cccc(F)c3)nc3sccn23)n1)c1ccc(Cl)cc1
viability at 10 µM [1]: 64.5% | viability at 10 µM [2]: 71.3% | viability at 10 µM [3]: 91.1% | viability at 10 µM [4]: 24.7% | viability at 10 µM [5]: 54.2% | viability at 10 µM [6]: 56.9% | viability at 10 µM [7]: 88.5% | viability at 10 µM [8]: 48.7% | viability at 10 µM [9]: 41.1% | viability at 10 µM [10]: 35.7% | viability at 10 µM [11]: 51.3% | viability at 10 µM [12]: 94.9% | viability at 10 µM [13]: 67.7% | viability at 10 µM [14]: 53.6% | viability at 10 µM [15]: 63.6% | viability at 10 µM [16]: 65.4% | viability at 10 µM [17]: 15.8% | viability at 10 µM [18]: 74.7% | viability at 10 µM [19]: 26.3% | viability at 10 µM [20]: 56.6% | viability at 10 µM [21]: 50.5% | viability at 10 µM [22]: 96% | viability at 10 µM [23]: 41.3% | viability at 10 µM [24]: 59.5% | viability at 10 µM [25]: 40.6% | viability at 10 µM [26]: 32.1% | viability at 10 µM [27]: 82.6% | viability at 10 µM [28]: 76.6% | viability at 10 µM [29]: 49.3% | viability at 10 µM [30]: 74.9% | viability at 10 µM [31]: 65.5% | viability at 10 µM [32]: 30.1% | viability at 10 µM [33]: 40% | viability at 10 µM [34]: 31.9% | viability at 10 µM [35]: 36% | viability at 10 µM [36]: 47.7% | viability at 10 µM [37]: 52.9% | viability at 10 µM [38]: 63.7% | viability at 10 µM [39]: 66.5% | viability at 10 µM [40]: 78.9% | viability at 10 µM [41]: 43.6%
